# According to patent publication US10399985B2, “(Hetero)aryl imidazoles/pyrazoles for treatment of neurological disorders” (Hoffmann-La Roche Inc., priority 2014, dated 2019):
# Molecular target: human PDE10A (Homo sapiens (Human), UniProt Q9Y233)
# Assay: human PDE10A full length Scintillation Proximity Assay (SPA)
# Format: biochemical
# Settings: 50 nM cGMP and 50 nM [3H]-cGMP, 20 minutes at room temperature
# Procedure: The following test was carried out in order to determine the activity of the compounds of the present invention. PDE10 activity of the compounds of the present invention was determined using a Scintillation Proximity Assay (SPA)-based method similar to the one previously described (Fawcett, L. et al., ProcNatl Acad Sci USA (2000) 97(7):3702-3707).
# The human PDE10A full length assay was performed in 96-well micro titer plates. The reaction mixture of 50 μl contained 20 mM HEPES pH=7.5/10 mM MgCl2/0.05 mg/ml BSA (Sigma cat. # A-7906), 50 nM cGMP (Sigma, cat. # G6129) and 50 nM [3H]-cGMP (GE Healthcare, cat. # TRK392 S. A. 13.2 Ci/mmol), 3.75 ng/well PDE10A enzyme (Enzo Life Science, Lausen, Switzerland cat # SE-534) with or without a specific test compound. A range of concentrations of the potential inhibitor was used to generate data for calculating the concentration of inhibitor resulting in 50% of the effect (e.g. IC50, the concentration of the competitor inhibiting PDE10A activity by 50%). Non-specific activity was tested without the enzyme. The reaction was initiated by the addition of the substrate solution (cGMP and [3H]-cGMP) and allowed to progress for 20 minutes at room temperature. The reaction was terminated by adding 25 μl of YSi-SPA scintillation beads (GE Healthcare, cat. # RPNQ0150) in 18 mM zinc sulphate solution (stop reagent). After 1 h under shaking, the plate was centrifuged one minute at 170 g to allow beads to settle. Afterwards, radioactive counts were measured on a Perkin Elmer TopCount Scintillation plate reader.
# Sequence of human PDE10A (Q9Y233 other isoform, or with tags, fused parts or gaps): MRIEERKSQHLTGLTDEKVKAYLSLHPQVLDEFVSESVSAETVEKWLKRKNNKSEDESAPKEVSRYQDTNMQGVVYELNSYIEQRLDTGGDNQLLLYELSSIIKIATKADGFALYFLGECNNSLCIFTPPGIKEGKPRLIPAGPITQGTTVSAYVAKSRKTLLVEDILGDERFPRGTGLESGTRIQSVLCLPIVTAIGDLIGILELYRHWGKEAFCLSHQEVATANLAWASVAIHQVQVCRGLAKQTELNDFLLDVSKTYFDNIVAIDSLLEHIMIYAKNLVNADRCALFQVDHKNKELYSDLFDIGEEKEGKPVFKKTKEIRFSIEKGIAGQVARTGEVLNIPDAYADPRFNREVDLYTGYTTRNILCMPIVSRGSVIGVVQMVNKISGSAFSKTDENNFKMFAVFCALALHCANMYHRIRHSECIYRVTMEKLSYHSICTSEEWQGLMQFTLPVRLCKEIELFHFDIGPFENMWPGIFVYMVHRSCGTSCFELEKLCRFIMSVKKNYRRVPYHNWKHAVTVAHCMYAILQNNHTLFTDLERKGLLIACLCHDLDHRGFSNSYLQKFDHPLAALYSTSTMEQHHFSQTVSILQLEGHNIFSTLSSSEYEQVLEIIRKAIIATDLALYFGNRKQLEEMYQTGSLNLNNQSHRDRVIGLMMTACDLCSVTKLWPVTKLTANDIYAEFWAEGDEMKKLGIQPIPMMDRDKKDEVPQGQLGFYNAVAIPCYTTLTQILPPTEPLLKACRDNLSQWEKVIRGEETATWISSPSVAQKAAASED
row,SMILES,IC50 [nM]
1,"Cc1nc2ccc(CCc3nc(-c4ccnnc4)cn3C)nn2c1C [Example 28, 2,3-Dimethyl-6-(2-(1-methyl-4-(pyridazin-4-yl)-1H-imidazol-2-yl)ethyl)imidazo[1,2-b]pyridazine]",81.2
2,"Cn1cc(-c2ccccc2)nc1CCc1ccc2nc(C3CC3)c(CO)n2n1 [Example 18, (2-Cyclopropyl-6-(2-(1-methyl-4-phenyl-1H-imidazol-2-yl)ethyl)imidazo[1,2-b]pyridazin-3-yl)methanol]",656
3,"CNC(=O)c1cc(CCc2nc(-c3ccccn3)cn2C)nn2c(C)c(C(F)(F)F)nc12 [Example 31, N,3-Dimethyl-6-(2-(1-methyl-4-(pyridin-2-yl)-1H-imidazol-2-yl)ethyl)-2-(trifluoromethyl)imidazo[1,2-b]pyridazine-8-carboxamide]",8
4,"Cn1cc(-c2ccccc2)nc1CCc1ccc2nc(C(F)(F)F)cn2n1 [Example 20, 6-(2-(1-Methyl-4-phenyl-1H-imidazol-2-yl)ethyl)-2-(trifluoromethyl)imidazo[1,2-b]pyridazine]",82.8
5,"Cc1nc2ccc(CCc3nc(-c4ccncc4)cn3C)nn2c1C [Example 25, 2,3-Dimethyl-6-(2-(1-methyl-4-(pyridin-4-yl)-1H-imidazol-2-yl)ethyl)imidazo[1,2-b]pyridazine]",32.3

# Test system: rats
# Assay: not given
# Settings: sub-chronic treatment with PCP; cited from earlier work
row,SMILES,deficits in the extra-dimensional shift learning
1,"COc1ccc(Cc2nccc3cc(OC)c(OC)cc23)cc1OC [papaverine, Papaverine]",attenuate the deficits
